In patent publication US20240351977A1, “Compositions and Methods For Reducing Immune Intolerance and Treating Autoimmune Disorders” (Lapix Therapeutics, Inc., priority 2021, published 2024):

Assays:
[1] = test system: FoxP3^+/TIM3^+ CD4 T-cells; test: In vitro dose-response analysis in murine T-cells (splenocytes, flow cytometry); assay type: cell-based, C57BL/6 mice; conditions: for change in FoxP3+/TIM3+ CD4 T-cells with dose: 48 μM to 1.5 μM; for EC50 / EC90: Mus musculus, T-cell, increase in percent FoxP3+/TIM3+ CD4 T-cells, 30:70 drug:DMPC liposomes, 4-parameter model, Emax fixed to 7.9%; for EC50: read-out: EC50 mean (SE); for EC90: read-out: EC90 mean (SE)
Method: Compound 1 and Compound 2 were each formulated with dimyristoylphosphatidylcholine (DMPC) at a 30:70 drug to lipid molar ratio. Liposomes were synthesized according to Example 2 in PBS.
Splenocytes from naïve C57BL/6 mice were stained with CFSE, prepared, cultured, and dosed. Cells were seeded at 2×10^5 cells/well. Cells were dosed with each compound from 48 μM to 1.5 μM at a log 2 dilution scheme. Cells were incubated for 72 hours before phenotyping for FoxP3^+/TIM3^+ CD4 T-cells. Flow cytometer analysis was performed to assess changes in percent FoxP3^+/TIM3^+ CD4 T-cells as a function of treatment and dose. Concentration versus response was fitted to a four- or five-parameter log-logistic model (using the “drc” package in “R”). The EC50 and EC90 values were obtained by model fitting.

[2] = test system: MOG35-55-Induced Murine EAE Model; test: MOG35-55-induced murine EAE model, prophylactic and therapeutic treatment; assay type: in vivo, mice
Method: Compound 2 was formulated with 1,2-distearoyl-sn-glycero-3-phosphocholine (DSPC) at a molar ratio of 3.75:96.25 Compound 2:DSPC. Two test articles were formulated and tested. The first formulation was made with Compound 2:DSPC with MOG35-55, referred to as Compound 2/MOG35-55. Another formulation was made without […], and is referred to as Compound 2. […] The ratio of Compound 2 to DSPC was chosen based on in vitro dose-response studies. Liposomes were prepared as described in Example 2, in PBS and extruded through a […] filter. Animals were dose with 100 μl of 42 μM Compound 2 or 100 μl of 42 μM/1 μg Compound 2/MOG35-55 per mouse PO QD. This dose was selected based on in vitro dose-response analysis.
In the active EAE model, mice are immunized with MOG35-55 peptide emulsified in Complete Freund's Adjuvant (CFA) by subcutaneous injection at the tail base (0.1 mL of emulsion/mouse) under anesthesia. On the day of injection (Day 0) and 2 days later, mice receive an intraperitoneal injection of Pertussis Toxin (PT) in PBS at 600 ng/mouse/dose (0.1 mL).
Symptoms typically develop in mice 9-14 days after immunization (Day 0). Daily observation and scoring of mice start on Day 9 and continue until the end of the study. Table 10 details the expected clinical symptoms and the scoring criteria used in this study.
Mice were dosed with 100 μl of 42 μM Compound 2 or 100 μl of 42 μM of Compound 2 co-formulated with 1 μg of MOG35-55 (Compound 2/MOG35-55) orally QD for the duration of the study.
To evaluate the therapeutic effects of Compound 2, treatment was initiated after the first clinical symptoms were observed. […] The treatment arm received 100 μl of 42 μM Compound 2 PO QD for the remainder of the study. Mice in all groups were monitored and scored daily for clinical symptoms. Once a mouse reached a score of five as per Table 11 or was found dead in the cage it was marked as an event in the survival analysis.

[3] = test system: FoxP3^+/CD4^+ T-cells; test: Pharmacodynamic effects of a single PO dose in mice (splenocyte phenotyping); assay type: in vivo; conditions: for percentage of FoxP3+/CD4+ T-cells, mean value: single oral gavage, 10:90 Compound 2:DMPC
Method: Compound 2 was dissolved in DMSO and formulated with 1,2-dimyristoyl-sn-glycero-3-phosphocholine (DMPC) at a molar ratio of 10:90 Compound 2:DMPC, as described in Example 2. Animals were dosed according to Table 7.
To evaluate the PD effects of a single dose of Compound 2 in mice, the animals were administered a single oral gavage as per their group assignment (Table 7). Five days after the oral dose, the animals were sacrificed and their spleens were collected for T-cell phenotyping. The study included an ex vivo analysis followed by a dose-response analysis (FIG. 4A). The spleens collected for splenocyte analysis were prepared into a single-cell suspension for cellular phenotyping by flow cytometry (eBioscience, Inc., San Diego, CA). Cells were stained and gated for CD4. Percent FoxP3^+/CD4^+ T-cells were evaluated using flow cytometry. A dose versus response curve was fitted to a four- or five-parameter log-logistic model (using the “drc” package in “R”). The EC50 and EC90 values were obtained by model fitting.

[4] = test system: FoxP3^+/CD4^+ T-cells; test: Splenocyte flow cytometry at end of EAE study; assay type: in vivo, mice
Method: At the end of the study, spleens were collected from a representative sample of mice from each group for splenocyte analysis. A single-cell suspension was prepared for cellular phenotyping by flow cytometry. Cells were stained and gated for CD4^+T-cells. Percent FoxP3^+/CD4^+ T-cells were evaluated by flow cytometry.

[5] = four-parameter dose-response model, percent FoxP3+/CD4+ T-cells, single oral dose
[6] = four-parameter dose-response model, single oral dose, 100 μl/mouse
[7] = mouse treated after the onset of symptoms

SMILES: CCCCCCCCCCCCCCCCOC(=O)NC[C@H](N)C(=O)O [Compound 1, (S)-2-amino-3-(((hexadecyloxy)carbonyl)amino) propanoic acid]
- increase in FoxP3+/TIM3+ CD4 T-cells over low dose ([1]; 10 μM): 126%
- change in FoxP3+/TIM3+ CD4 T-cells with dose [1]: dose-dependent increase
- cell appearance via microscope at end of incubation ([1]; 48 μM, 72 hours): did not look healthy
- EC50 ([1]; 72 hours): 13.4 µM
- EC90 ([1]; 72 hours): 15 µM
- FoxP3+/TIM3+ double positive CD4 T-cells, mean value ([1]; high dose, 72 hours): 8.26%
- FoxP3+/TIM3+ double positive CD4 T-cells, mean value ([1]; low dose, 72 hours): 3.65%

SMILES: CCCCCCCCCCCCCCCCCC(=O)NC[C@H](N)C(=O)O [Compound 2, (S)-2-amino-3-stearamidopropanoic acid]
- mean clinical score by end of the study ([2]; prophylactic): 2.1
- disease onset, day after immunization ([2]; prophylactic, 100 μl of 42 μM PO QD from four days after immunization, control day 9): 12 days
- mean clinical score at peak symptoms ([2]; prophylactic, day 17, control 4.77): 2.6
- day by which all animals showed symptoms ([2]; prophylactic, control 11): 13 days
- delay in disease progression after disease onset ([2]; therapeutic, 100 μl of 42 μM PO QD from clinical score of 1): one-day
- mean clinical score lower than in the untreated arm ([2]; therapeutic, by the end of the study): 54%
- mean clinical score at peak symptoms ([2]; therapeutic, day 6 after the onset of symptoms, control 4.77 on day 7): 2.8
- mean clinical score after the peak ([2]; therapeutic, day 10 after the onset of symptoms): 2.33
- animals that spontaneously died or were euthanized (survival analysis) ([2]; untreated group eight out of nine): zero out of nine
- increase in FoxP3+/TIM3+ CD4 T-cells over low dose ([1]; 30 μM): 129%
- toxicity in vitro ([1]; 30 µM dose): less toxicity in vitro compared to Compound 1
- change in FoxP3+/TIM3+ CD4 T-cells with dose [1]: dose-dependent increase
- EC50 ([1]; 72 hours): 14.6 µM
- EC90 ([1]; 72 hours): 17.8 µM
- FoxP3+/TIM3+ double positive CD4 T-cells, mean value ([1]; high dose, 72 hours): 7.36%
- FoxP3+/TIM3+ double positive CD4 T-cells, mean value ([1]; low dose, 72 hours): 3.21%
- maximum efficacious dose in vitro ([1]; preliminary data): 42 µM
- E0 (model estimated), Mean [3, 5]: 3.3
- Emax (model estimated), Mean [3, 5]: 12.1%
- ED50 [3, 6]: 43.1 µM
- ED90 [3, 6]: 281.0 µM
- percentage of FoxP3+/CD4+ T-cells, mean value ([3]; high dose group, 5 days): 11.53%
- percentage of FoxP3+/CD4+ T-cells, mean value ([3]; low dose group, 5 days): 3.87%
- increase of FoxP3+/CD4+ T-cells (T-regs), high dose group compared to low dose group ([3]; single oral dose, 5 days): 219%
- increase of Foxp3+/CD4+ T-cells over the surviving mouse in the untreated group [4, 7]: 715%
- percent Foxp3+/CD4+ T-cell [4, 7]: 26.1%
- increase of Foxp3+/CD4+ T-cells over control ([4]; prophylactic group): 225%
- percent of Foxp3+/CD4+ T-cells ([4]; prophylactic group, end of study, control 3.20%): 10.4%
